Paper PMC11642016 (International Journal of Molecular Sciences, 2024)
“And” between values parts separate entries of the source, which are not always exact repeats. Identical values can stand only once. Like-named read-outs stand apart in the source and are kept apart here.

Experiments:
PANC-1 cells = assay: CellTiter-Glo luminescent cell viability assay, PANC-1
Fadu cells = assay: CellTiter-Glo luminescent cell viability assay, Fadu
[1] = CellTiter-Glo luminescent cell viability assay, primary fibroblasts; conditions: human, primary skin fibroblasts (non-tumorous), Primer fibroblast Cell viability (% of controll), 72 h, dose–response, individual replicates
[2] = tested on: non-tumorous primary fibroblast cells; assay: as above; conditions: for Primer fibroblast Cell viability (% of controll): dose–response, individual replicates; for IC50: Homo sapiens, Fibroblast
[3] = 0.7 μM, 72 h, dose–response, individual replicates
[4] = 1 μM, 72 h, dose–response, individual replicates
[5] = 2.3 μM, 72 h, dose–response, individual replicates
[6] = 3.4 μM, 72 h, dose–response, individual replicates
[7] = 5.1 μM, 72 h, dose–response, individual replicates
[8] = 7.7 μM, 72 h, dose–response, individual replicates
[9] = 17.3 μM, 72 h, dose–response, individual replicates
[10] = 26 μM, 72 h, dose–response, individual replicates

CNCC#Cc1cccc(CN2C(=O)C3=C(CCN(Cc4ccc(-n5cc(-c6ccc(F)cc6)nn5)cc4)C3)N3CCN=C23)c1 [43b]
PANC-1 Cell viability (% of controll) (PANC-1 cells; [3]): 103 % of controll and 101 % of controll
PANC-1 Cell viability (% of controll) (PANC-1 cells; [4]): 107 % of controll
PANC-1 Cell viability (% of controll) (PANC-1 cells; 1.5 μM, 72 h, dose–response, individual replicates): 99 % of controll and 110 % of controll
PANC-1 Cell viability (% of controll) (PANC-1 cells; [5]): 102 % of controll and 103 % of controll
PANC-1 Cell viability (% of controll) (PANC-1 cells; [6]): 10 % of controll and 7 % of controll
PANC-1 Cell viability (% of controll) (PANC-1 cells; [7]): 0 % of controll
PANC-1 Cell viability (% of controll) (PANC-1 cells; [8]): 0 % of controll
PANC-1 Cell viability (% of controll) (PANC-1 cells; [9]): 0 % of controll
PANC-1 Cell viability (% of controll) (PANC-1 cells; [10]): 0 % of controll
IC50 (PANC-1 cells; Homo sapiens, PANC-1, 72 h, read-out: IC50 Value ± SEM PANC-1, 72 h treatment, best-fit values, n = 3): 3.1 ± 0.17 µM
viability at 0.7 µM (PANC-1 cells; Homo sapiens, PANC-1, 72 h, read-out: PANC-1 Cell viability (% of controll), 0.7 μM, 72 h, dose–response, individual replicates): 104%
viability at 1 µM (PANC-1 cells; Homo sapiens, PANC-1, 72 h, read-out: PANC-1 Cell viability (% of controll), 1 μM, 72 h, dose–response, individual replicates): 104%
viability at 1.5 µM (PANC-1 cells; Homo sapiens, PANC-1, 72 h, read-out: PANC-1 Cell viability (% of controll), 1.5 μM, 72 h, dose–response, individual replicates): 104%
viability at 2.3 µM (PANC-1 cells; Homo sapiens, PANC-1, 72 h, read-out: PANC-1 Cell viability (% of controll), 2.3 μM, 72 h, dose–response, individual replicates): 106%
viability at 3.4 µM (PANC-1 cells; Homo sapiens, PANC-1, 72 h, read-out: PANC-1 Cell viability (% of controll), 3.4 μM, 72 h, dose–response, individual replicates): 13%
viability at 5.1 µM (PANC-1 cells; Homo sapiens, PANC-1, 72 h, read-out: PANC-1 Cell viability (% of controll), 5.1 μM, 72 h, dose–response, individual replicates): 0%
viability at 7.7 µM (PANC-1 cells; Homo sapiens, PANC-1, 72 h, read-out: PANC-1 Cell viability (% of controll), 7.7 μM, 72 h, dose–response, individual replicates): 0%
viability at 17.3 µM (PANC-1 cells; Homo sapiens, PANC-1, 72 h, read-out: PANC-1 Cell viability (% of controll), 17.3 μM, 72 h, dose–response, individual replicates): 0%
viability at 26 µM (PANC-1 cells; Homo sapiens, PANC-1, 72 h, read-out: PANC-1 Cell viability (% of controll), 26 μM, 72 h, dose–response, individual replicates): 0%
IC50 (PANC-1 cells; Homo sapiens, PANC-1, read-out: PANC-1 IC50 values, Mean, mean of independently fitted replicate IC50 values (Supplement S.6)): 3.06 µM
Selectivity Index (SI) Fibroblast/PANC-1 (PANC-1 cells; ratio of mean best-fit IC50 for primary fibroblasts and best-fit IC50 for PANC-1): 1.1
Fadu Cell viability (% of controll) (Fadu cells; [3]): 108 % of controll and 104 % of controll
Fadu Cell viability (% of controll) (Fadu cells; [4]): 106 % of controll and 101 % of controll
Fadu Cell viability (% of controll) (Fadu cells; [5]): 96 % of controll and 91 % of controll
Fadu Cell viability (% of controll) (Fadu cells; [6]): 58 % of controll and 46 % of controll and 27 % of controll
Fadu Cell viability (% of controll) (Fadu cells; [7]): 1 % of controll and 0 % of controll
Fadu Cell viability (% of controll) (Fadu cells; [8]): 0 % of controll
Fadu Cell viability (% of controll) (Fadu cells; [9]): 0 % of controll
Fadu Cell viability (% of controll) (Fadu cells; [10]): 0 % of controll
viability at 0.7 µM (Fadu cells; Homo sapiens, FaDu, 72 h, read-out: Fadu Cell viability (% of controll), 0.7 μM, 72 h, dose–response, individual replicates): 108%
viability at 1 µM (Fadu cells; Homo sapiens, FaDu, 72 h, read-out: Fadu Cell viability (% of controll), 1 μM, 72 h, dose–response, individual replicates): 102%
viability at 1.5 µM (Fadu cells; Homo sapiens, FaDu, 72 h, read-out: Fadu Cell viability (% of controll), 1.5 μM, 72 h, dose–response, individual replicates): 105%
viability at 2.3 µM (Fadu cells; Homo sapiens, FaDu, 72 h, read-out: Fadu Cell viability (% of controll), 2.3 μM, 72 h, dose–response, individual replicates): 91%
viability at 7.7 µM (Fadu cells; Homo sapiens, FaDu, 72 h, read-out: Fadu Cell viability (% of controll), 7.7 μM, 72 h, dose–response, individual replicates): 0%
viability at 17.3 µM (Fadu cells; Homo sapiens, FaDu, 72 h, read-out: Fadu Cell viability (% of controll), 17.3 μM, 72 h, dose–response, individual replicates): 0%
viability at 26 µM (Fadu cells; Homo sapiens, FaDu, 72 h, read-out: Fadu Cell viability (% of controll), 26 μM, 72 h, dose–response, individual replicates): 0%
IC50 (Fadu cells; Homo sapiens, FaDu, 72 h, read-out: IC50 Value ± SEM Fadu, 72 h treatment, best-fit values, n = 3): 3.2 ± 0.06 µM
IC50 (Fadu cells; Homo sapiens, FaDu, read-out: Fadu IC50 values, Mean, mean of independently fitted replicate IC50 values (Supplement S.6)): 3.25 µM
Selectivity Index (SI) Fibroblast/Fadu (Fadu cells; ratio of mean best-fit IC50 for primary fibroblasts and best-fit IC50 for Fadu): 1.1
viability at 72 h, 0.7 µM ([1]; 0.7 μM): 96%
viability at 72 h, 1 µM ([1]; 1 μM): 102%
viability at 72 h, 1.5 µM ([1]; 1.5 μM): 107%
viability at 72 h, 2.3 µM ([1]; 2.3 μM): 105%
viability at 72 h, 5.1 µM ([1]; 5.1 μM): 0%
viability at 72 h, 7.7 µM ([1]; 7.7 μM): 0%
viability at 72 h, 17.3 µM ([1]; 17.3 μM): 0%
viability at 72 h, 26 µM ([1]; 26 μM): 0%
Primer fibroblast Cell viability (% of controll) ([2]; 0.7 μM, 72 h): 105 % of controll and 104 % of controll
Primer fibroblast Cell viability (% of controll) ([2]; 1 μM, 72 h): 113 % of controll and 103 % of controll
Primer fibroblast Cell viability (% of controll) ([2]; 1.5 μM, 72 h): 105 % of controll and 97 % of controll
Primer fibroblast Cell viability (% of controll) ([2]; 2.3 μM, 72 h): 99 % of controll
Primer fibroblast Cell viability (% of controll) ([2]; 3.4 μM, 72 h): 89 % of controll and 54 % of controll and 50 % of controll
Primer fibroblast Cell viability (% of controll) ([2]; 5.1 μM, 72 h): 0 % of controll
Primer fibroblast Cell viability (% of controll) ([2]; 7.7 μM, 72 h): 0 % of controll
Primer fibroblast Cell viability (% of controll) ([2]; 17.3 μM, 72 h): 0 % of controll
Primer fibroblast Cell viability (% of controll) ([2]; 26 μM, 72 h): 0 % of controll
IC50 ([2]; 72 h, read-out: IC50 Value ± SEM Primary Fibroblast, 72 h treatment, best-fit values, n = 3): 3.5 ± 0.17 µM
IC50 ([2]; read-out: Primary fibroblast IC50 values, Mean, mean of independently fitted replicate IC50 values (Supplement S.6), ONC201 value mathematically estimated from inflection point): 3.46 µM
